Where a name gives a salt, the structure may show the parent alone.
Assays:
[1] = test system: PDH; settings: cited from earlier work
[2] = cited from earlier work

SMILES | melting point [°C] | also measured
C[C@@](O)(C(=O)N1CCC(C(=O)c2ccc(F)cc2)CC1)C(F)(F)F | 78 to 79 | –
C[C@@H]1CN(C(=O)[C@@](C)(O)C(F)(F)F)[C@@H](C)CN1C(=O)c1ccc(F)cc1 | 177 to 178 | –
C[C@@](O)(C(=O)N1CCC(N)CC1)C(F)(F)F (as salt: hydrochloride) | 245 to 246 | –
CCS(=O)(=O)N1C[C@H](C)N(C(=O)[C@@](C)(O)C(F)(F)F)C[C@H]1C | 142 to 144 | –
O=C(O)C(Cl)Cl [DCA, dichloroacetic acid] | – | activity of PDH ([1]; after acute administration in animals): increases the activity of PDH; proportion of PDH in its active form ([1]; single administration, 150 mg/kg, intraperitoneally): increased the proportion of PDH in its active form; plasma glucose ([2]; after repeated administration): significant decrease in plasma glucose; glycaemia ([2]; in vivo): reducing glycaemia

Further lines, with some results ahead:

melting point [°C] | SMILES | also measured
116 to 117 | C[C@@H]1CN(C(=O)[C@@](C)(O)C(F)(F)F)[C@@H](C)CN1S(=O)(=O)c1cccs1 | –
186 to 187 | C[C@@H]1CN(C(=O)[C@@](C)(O)C(F)(F)F)[C@@H](C)CN1S(=O)(=O)c1ccc(C#N)cc1 | –
194 to 196 | C[C@@H]1CN(C(=O)[C@@](C)(O)C(F)(F)F)[C@@H](C)CN1S(=O)(=O)c1ccc(C(=O)O)cc1 | –
174 to 175 | C[C@@H]1CN(C(=O)[C@@](C)(O)C(F)(F)F)[C@@H](C)CN1S(=O)(=O)c1ccc(F)cc1 | –
86 to 87 | C[C@@H]1CN(C(=O)[C@@](C)(O)C(F)(F)F)[C@@H](C)CN1S(=O)(=O)c1ccc(C(=O)N(C)C)cc1 | –

Reference: patent US6878712B1, “Amides as inhibitors for pyruvate dehydrogenase” (AstraZeneca AB, priority 1999, dated 2005)
